Results published in patent publication US20070281857A1, “FORMIC ACID AS AN HERBICIDE” (MARRONE ORGANIC INNOVATIONS, priority 2006, published 2007).
Read-outs that look alike come from different tables or passages of the source.

How the values were obtained:
[1] = tested on: dicots (radishes); settings: solution in water at 0.5% and 0.1%
Description: (§1) Numerous natural compounds were screened for their ability to inhibit the germination of seeds. A single seed was placed in each well of a 96-well plate followed by a solution of each compound in water at both 0.5% and 0.1%. Germination was monitored at varying intervals, depending on the germination time in the control groups for the particular seed being used in the study.

[2] = tested on: monocots (wheat); settings: solution in water at 0.5% and 0.1%
Description: as §1

[3] = tested on: Lactuca sativa (lettuce) seed; settings: stepwise dilution series from 25% to 0%
Description: Numerous natural compounds were screened for their ability to inhibit the germination of dicot seeds. A single seed of Lactuca sativa (lettuce) was placed in each well of a 96-well plate followed by a solution of each compound in a stepwise dilution series from 25% to 0%. Germination was monitored daily.

[4] = tested on: Seedlings of Lactuca sativa (lettuce)
Protocol: A high-throughput 96-well assay was used to test the efficacy of formic acid as a post-emergence, non-selective herbicide. Seedlings of Lactuca sativa (lettuce) were grown in 96-well plates under continuous light. Formic acid was added on the seedlings at a 5x-dilution series from 20% to 0%, and the minimum concentration needed for killing the seedling was recorded the next day.

[5] = tested on: Poa annua (annual bluegrass); settings: for germination rate (%) annual bluegrass: one week, compared with control
Protocol: (§2) Pots with 3-cm diameter were filled with 60 mL of silt clay loam soil passed through a 2-mm sieve, and five (5) seeds of either Taraxacum officinale (dandelion, representing a broadleaved weed) or Poa annua (annual bluegrass, representing a grass weed) were planted on the top. A solid form of the composition containing corn gluten meal granules (>2 mm diameter) soaked in 0%, 10%, 15% or 20% formic acid solution and dried were placed on the top of the soil at rates 0.1, 0.25, 0.5 and 1.0 g/pot. The pots were kept at optimum water content under growth lights with a 12-h light/dark period at room temperature, and the number of germinated seeds was counted after one week.

[6] = tested on: Taraxacum officinale (dandelion); settings: for germination rate (%) dandelion: one week, compared with control
Protocol: as §2

[7] = tested on: dicot seeds; settings: charcoal saturated at 1 mL acid/1 g charcoal, applied to soil in flats; FIG. 2
Description: (§3) Charcoal was applied to soil in flats containing a known number of seeds, either monocot or dicot, and germination was monitored in each of the treatment groups following intervals determined by the rate of germination in controls.

[8] = tested on: monocot seeds; settings: charcoal saturated at 1 mL acid/1 g charcoal, applied to soil in flats; FIG. 1
Description: as §3

[9] = tested on: Lactuca sativa (lettuce); settings: for germination rate potting mix clay / germination rate soil (silty clay loam) clay / germination rate potting mix corn starch / germination rate soil (silty clay loam) corn starch / germination rate potting mix sand / germination rate soil (silty clay loam) sand: 7 days, relative to untreated control
Protocol: To test different carriers for formic acid, corn starch (powder), clay (granular, >2 mm diameter) and sand (small grain) were saturated with formic acid solutions (1, 3, and 5%) and dried at room temperature. Dry product (7.5 mL) was mixed with 60 mL of either potting mix or soil, and the mixture was placed in a small pot. Five (5) seeds of Lactuca sativa (lettuce) were planted on the top of each pot, and the seeds were covered with sand. The pots were incubated at room temperature under continuous light for 7 days, after which the number of seeds germinated in each pot was recorded and presented as a germination rate relative to the untreated control.

[10] = tested on: apple seedlings
Protocol: In order to estimate the length of time during which the presence of formic acid in the soil would have a negative effect on new, and perhaps desirable, plantings, a residue study was performed. Holes were cut into the bottoms of flats. The flats were then filled with soil and treated with charcoal immersed in either formic acid or water, just as described above. Soil was watered regularly in order to simulate natural growing conditions and soil leaching. Ten apple seedlings were planted in individual flats containing one treatment or the other at intervals of one week and survival was monitored for one week following each planting.

[11] = tested on: radish (Raphanus sativus); settings: spray, 1, 3 and 5% in water with 0.04% Tween 20
Protocol: (§4) The herbicidal effect of formic acid was compared with that of acetic acid in a greenhouse study using radish (Raphanus sativus) and wheat (Triticum aestivum) as test plants. Both formic acid and acetic acid were diluted in water at 1, 3, and 5%, and deionized water was used as a control. Tween 20 was added to each of the solutions at a rate 0.04% for use as a surfactant. Solutions were applied to plants using a small handheld sprayer. Plants were evaluated at 24- and 72-hours after treatment for the % control.

[12] = tested on: wheat (Triticum aestivum); settings: 5%, spray
Protocol: as §4

[13] = 10% formic acid in corn gluten meal granules >2 mm, 0.1 g/pot
[14] = 10% formic acid in corn gluten meal granules >2 mm, 0.25 g/pot
[15] = 10% formic acid in corn gluten meal granules >2 mm, 0.5 g/pot
[16] = 10% formic acid in corn gluten meal granules >2 mm, 1 g/pot
[17] = 15% formic acid in corn gluten meal granules >2 mm, 0.1 g/pot
[18] = 15% formic acid in corn gluten meal granules >2 mm, 0.25 g/pot
[19] = 15% formic acid in corn gluten meal granules >2 mm, 0.5 g/pot
[20] = 15% formic acid in corn gluten meal granules >2 mm, 1 g/pot
[21] = 20% formic acid in corn gluten meal granules >2 mm, 0.1 g/pot
[22] = 20% formic acid in corn gluten meal granules >2 mm, 0.25 g/pot
[23] = 20% formic acid in corn gluten meal granules >2 mm, 0.5 g/pot
[24] = 20% formic acid in corn gluten meal granules >2 mm, 1 g/pot
[25] = bigger granules (>2 mm) imbedded in 15% formic acid

O=CO [Formic acid]
ability to inhibit germination of seeds [1]: inhibit germination of seeds | ability to inhibit germination of seeds [2]: inhibit germination of seeds | threshold value to inhibit germination of seeds [3]: 0.0013% | minimum concentration needed for killing the seedling ([4]; 5x-dilution series from 20% to 0%, recorded the next day): 0.8% | effect on lettuce seedling ([4]; formic acid 0.16%, next day): not harmful for the plant | germination rate (%) annual bluegrass [5, 13]: 100% | germination rate (%) annual bluegrass [5, 14]: 100% | germination rate (%) annual bluegrass [5, 15]: 30% | germination rate (%) annual bluegrass [5, 16]: 100% | germination rate (%) annual bluegrass [5, 17]: 0% | germination rate (%) annual bluegrass [5, 18]: 0% | germination rate (%) annual bluegrass [5, 19]: 0% | germination rate (%) annual bluegrass [5, 20]: 100% | germination rate (%) annual bluegrass [5, 21]: 100% | germination rate (%) annual bluegrass [5, 22]: 100% | germination rate (%) annual bluegrass [5, 23]: 100% | germination rate (%) annual bluegrass [5, 24]: 100% | control of the grass seed germination [5, 25]: not effective | germination rate (%) dandelion [6, 13]: 60% | germination rate (%) dandelion [6, 14]: 30% | germination rate (%) dandelion [6, 15]: 30% | germination rate (%) dandelion [6, 16]: 0% | germination rate (%) dandelion [6, 17]: 30% | germination rate (%) dandelion [6, 18]: 30% | germination rate (%) dandelion [6, 19]: 30% | germination rate (%) dandelion [6, 20]: 0% | germination rate (%) dandelion [6, 21]: 0% | germination rate (%) dandelion [6, 22]: 0% | germination rate (%) dandelion [6, 23]: 0% | germination rate (%) dandelion [6, 24]: 0% | control of a broadleaved weed [6, 25]: complete control | effect on the germination of dicot seeds [7]: profound effect | effect on the germination of monocot seeds [8]: profound effect | germination rate potting mix clay ([9]; 1% formic acid on clay): 100 | germination rate soil (silty clay loam) clay ([9]; 1% formic acid on clay): 100 | germination rate potting mix corn starch ([9]; 1% formic acid on corn starch): 100 | germination rate soil (silty clay loam) corn starch ([9]; 1% formic acid on corn starch): 100 | germination rate potting mix sand ([9]; 1% formic acid on sand): 100 | germination rate soil (silty clay loam) sand ([9]; 1% formic acid on sand): 100 | germination rate potting mix clay ([9]; 3% formic acid on clay): 80 | germination rate soil (silty clay loam) clay ([9]; 3% formic acid on clay): 100 | germination rate potting mix corn starch ([9]; 3% formic acid on corn starch): 100 | germination rate soil (silty clay loam) corn starch ([9]; 3% formic acid on corn starch): 75 | germination rate potting mix sand ([9]; 3% formic acid on sand): 80 | germination rate soil (silty clay loam) sand ([9]; 3% formic acid on sand): 100 | control of germination of lettuce, comparison of tested products ([9]; 5% formic acid imbedded in clay granules): best control of germination | germination rate potting mix clay ([9]; 5% formic acid on clay): 60 | germination rate soil (silty clay loam) clay ([9]; 5% formic acid on clay): 50 | germination rate potting mix corn starch ([9]; 5% formic acid on corn starch): 100 | germination rate soil (silty clay loam) corn starch ([9]; 5% formic acid on corn starch): 100 | germination rate potting mix sand ([9]; 5% formic acid on sand): 20 | germination rate soil (silty clay loam) sand ([9]; 5% formic acid on sand): 100 | survival of planted seedlings ([10]; "By week 1, however, and in all subsequent weeks", identical to water group): 100% | residual herbicidal effect lasting ([10]; formic acid on charcoal in watered soil): less than one week | planted seedlings survived ([10]; week 1, flats treated with charcoal immersed in formic acid, water flats 100 percent): 80% | % control of radish plants ([11]; 24-h): 100% | % control of radish plants ([11]; 72-h): 100% | % control of wheat seedlings ([12]; 24-h): 1% | % control of wheat seedlings ([12]; 72-h): 4%
